Laboratory results reported in patent EP0016746A1, “New therapeutically active spirocycloalkylamines and pharmaceutical preparations comprising such compounds” (priority 1979, dated 1980).

Columns and labels:
[1] = system: central dopamine (DA) receptors; assay: Blockade of apomorphine induced stereotypies and hyperactivity in rats; assay type: in vivo, Male Sprague-Dawley rats; conditions: for ED50 Hyper-activity / ED50 Stereo-typies: i.p. 60 min prior to apomorphine hydrochloride 1 mg/kg s.c.; for ED50 Hyper-activity: dose reducing number of animals showing hyperactivity by 50% over 60 min observation; for ED50 Stereo-typies: dose reducing strength of stereotypies by 50% over 60 min observation
Source text: The DA receptor blockade as measured by different in vitro anc in vivo techniques correlate roughly with the antipsychotic efficacy. The blockade of the behavioural effects induced by the DA receptor agonist apomorphine is highly correlated to the antipsychotic effect of various neuroleptics. The ability of potential neuroleptics to block the apomorphine induced behaviours may thus be a valuable predictor of the anti- psychotic efficacy in man.
Male Sprague-Dawley rats, weighing 250-300 g, were used. […] The compounds were injected intraperitoneally 60 min. prior to apomorphine hydrochloride (1 mg/kg dissolved in saline), which was injected subcutaneously into the neck. […] Directly after the injection the animals were placed in the cages, one in each cage. Scoring of the stereotypies was performed by a modified version (Fuxe et al. in Rhinencephale Neurotransmetteurs et Psychoses, by G. Masson, Paris 1977, p. 253) of the system introduced by Costall and Naylor (Eur. J. Pharmacol. 24 8 (1973).
The number of animals, displaying hyperactivity caused by apomorphine, was scored. Each group consisted of 6-8 animals. Saline controls were always run simultaneously. The EO50's for stereotypies are the doses which reduce the strength of the stereotypies by 50% over the observation period of 60 min. The Ed50's for hyperactivity are the doses which reduce the number of animals showing hyperactivity by 50% over the observation period of 60 min. EO50's were calculated from log dose-curves from 4-6 levels with 6-8 animals per dose level. The test compounds were dissolved in saline or water.

[2] = Heart effects: arterial blood pressure, heart rate and electrocardiograms after consecutive increasing intravenous doses in restrained rats; assay type: in vivo, Male Sprauge-Dawley rats; conditions: for Minimum doses causing changes in: Cardiogram intervals PR / Minimum doses causing changes in: Cardiogram intervals QRS / Minimum doses causing changes in: Cardiogram intervals QT / Minimum doses causing changes in: Heart rate (Decrease) / Minimum doses causing changes in: Mean arterial blood pressure (Decrease): change of more than 15% from values before administration
Protocol: Male Sprauge-Dawley rats weighing 290-360 grams were used. The animals were prepared for recording the arterial blood pressure through a catheter implanted into the abdominal aorta and for injection of drugs through a catheter implanted into the abdominal vena cava. Both catheters were exteriorized at the base of the neck. At least five days were allowed for recovery after the operation.
The animals were kept immobilized in restraining cages during the experiment. The arterial blood pressure was continuously monitored on a Grass Model 7 Polygraph via a Statham P23Gc transducer. Electrocardiograms were taken from subcutaneously placed thin needle electrodes and recorded on a Mingograph 34 (Elema-Schänander AB, Sweden).
Groups of rats were given consecutive increasing intravenous doses of the test compounds from the dose scale: 0.25, 0.5, 1, 2, 4, 8, 16, 32 and 64 […]. The test compounds were injected over a period of 30 seconds at an interval of five minutes at doses of 0.25-8 […] and with an interval of 15 minutes at higher dose ranges.
The minimum doses that caused changes in mean arterial blood pressure, heart rate, PR, QRS and QT intervals of more than 15% from values before administration were arbitrarily defined as a drug effect.

[3] = i.p., rats, comparison in words

CN(C)C1C=CC2(CC1)c1ccccc1CCc1ccc(Cl)cc12 (stereo not shown) [-N(CH3)2, reference compound]
ED50 Hyper-activity [1]: 6.4 µmol/kg
ED50 Stereo-typies [1]: 35 µmol/kg
Minimum doses causing arrhythmias (Second degree AV-block) [2]: 2 to 4 µmol/kg
Minimum doses causing changes in: Cardiogram intervals PR [2]: 2 µmol/kg
Minimum doses causing changes in: Cardiogram intervals QRS [2]: >4 µmol/kg
Minimum doses causing changes in: Cardiogram intervals QT [2]: 4 µmol/kg
Minimum doses causing changes in: Heart rate (Decrease) [2]: 2 µmol/kg
Minimum doses causing changes in: Mean arterial blood pressure (Decrease) [2]: 4 µmol/kg

CN(C)CCCN1c2ccccc2Sc2ccc(Cl)cc21 [Chlorpromazine, reference compound]
ED50 Hyper-activity [1]: 6.2 µmol/kg
ED50 Stereo-typies [1]: 6.2 µmol/kg

CN1CCN(C2=Nc3cc(Cl)ccc3Nc3ccccc32)CC1 [Clozapine, reference compound]
ED50 Hyper-activity [1]: 26 µmol/kg
ED50 Stereo-typies [1]: 104 µmol/kg

CNC1C=CC2(CC1)c1ccccc1CCc1ccc(Cl)cc12 (stereo not shown) [Example 3, 3-Chloro-10,11-dihydro-N-methylspiro-[5H-dibenzo[a,d]-cyclohBptene-5,1'-cyclohex-2-Bn]-4'-amine]
ED50 Hyper-activity [1]: 15 µmol/kg
ED50 Stereo-typies [1]: 65 µmol/kg
activity against apomorphine induced behaviours (in words) ([1]; i.p., rats, summary of Table 1): active
Minimum doses causing arrhythmias (Second degree AV-block) [2]: 16 µmol/kg
Minimum doses causing changes in: Cardiogram intervals PR [2]: 16 µmol/kg
Minimum doses causing changes in: Cardiogram intervals QRS [2]: 8 µmol/kg
Minimum doses causing changes in: Cardiogram intervals QT [2]: 16 µmol/kg
Minimum doses causing changes in: Heart rate (Decrease) [2]: 16 µmol/kg
Minimum doses causing changes in: Mean arterial blood pressure (Decrease) [2]: 8 to 16 µmol/kg

OCCN1CCN(C2C=CC3(CC2)c2ccccc2CCc2ccc(Cl)cc23)CC1 (stereo not shown) [Example 4]
ED50 Hyper-activity [1]: 24 µmol/kg
ED50 Stereo-typies [1]: 70 µmol/kg
potency to block apomorphine induced hyperactivity compared with clozapine [1, 3]: as potent as clozapine
potency to block the stereotypies compared with clozapine [1, 3]: more potent than clozapine
Minimum doses causing arrhythmias (Second degree AV-block) [2]: 64 µmol/kg
Minimum doses causing changes in: Cardiogram intervals PR [2]: 32 µmol/kg
Minimum doses causing changes in: Cardiogram intervals QRS [2]: 16 µmol/kg
Minimum doses causing changes in: Cardiogram intervals QT [2]: 16 µmol/kg
Minimum doses causing changes in: Heart rate (Decrease) [2]: 16 to 32 µmol/kg
Minimum doses causing changes in: Mean arterial blood pressure (Decrease) [2]: 8 µmol/kg
